Data: paper PMC6367362, “MD001, a Novel Peroxisome Proliferator-activated Receptor α/γ Agonist, Improves Glucose and Lipid Metabolism” (Scientific Reports, 2019)

Tests used:
human HA-PPARα = biological target: T1, human HA-PPARα (Homo sapiens, UniProt Q07869); test: PPRE luciferase activity assay in HEK293 cells transfected with HA-PPARα; type: cell-based; parameters: transcriptional activity of PPARα: dose or concentration left out as unconfirmed; conditions: HEK293, PPRE-pk-Luc
T1 construct: expressed in transfected cells; host or cells: HEK293
T1 sequence (Q07869 1-468): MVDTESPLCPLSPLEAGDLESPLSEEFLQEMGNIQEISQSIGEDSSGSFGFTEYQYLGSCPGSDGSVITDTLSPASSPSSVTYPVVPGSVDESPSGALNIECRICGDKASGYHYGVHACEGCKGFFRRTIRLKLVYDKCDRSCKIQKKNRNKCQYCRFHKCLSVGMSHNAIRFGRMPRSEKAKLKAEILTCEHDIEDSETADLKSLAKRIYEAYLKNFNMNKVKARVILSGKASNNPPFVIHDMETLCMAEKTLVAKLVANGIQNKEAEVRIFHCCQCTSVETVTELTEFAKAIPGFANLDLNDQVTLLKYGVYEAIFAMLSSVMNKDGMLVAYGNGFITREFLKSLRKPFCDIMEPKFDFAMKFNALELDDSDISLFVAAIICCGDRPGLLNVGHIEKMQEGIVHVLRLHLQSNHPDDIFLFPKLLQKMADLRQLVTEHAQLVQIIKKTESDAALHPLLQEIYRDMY
Procedure: Figure 2 MD001 induces the expression of target genes through PPARα and PPARγ activation. HEK293 cells were transiently co-transfected with human HA-PPARα (A) and HA-PPARγ (B) expression vectors along with the reporter plasmid (PPRE-pk-Luc) or control reporter plasmid (pk-Luc) with Renilla vector for 24 h. Cells were treated with MD001 (10 μM), rosiglitazone (rosi) (10 μM) or WY14643 (WY) (10 μM) for 24 h. Luciferase activity was normalised to Renilla luciferase activity as described in the Methods section. **, vs. vehicle. (C) HepG2 cells were treated with MD001 (10 μM) for 24 h, and total RNA was isolated and synthesised into cDNA. Relative expression was quantitated using qRT-PCR. **, vs. vehicle. (D,E) HepG2 cells were transfected with control siRNA, PPARα siRNA (D), or PPARγ siRNA (E) for 48 h and treated with vehicle, WY14643 (10 μM), rosiglitazone (10 μM) or MD001 (10 μM) for 24 h. Subsequently, cells were harvested for total RNA isolation. Relative expression of target genes was quantitated using qRT-PCR. ^#, vs. control siRNA; ^‡, vs. control siRNA/vehicle; ^§, vs. control siRNA/WY; * and **, vs. control siRNA/MD001. Data represent the mean ± SD of three independent experiments. *P < 0.05, **P < 0.01, ^#P < 0.01, ^‡P < 0.01, and ^§P < 0.01.
For transient transfection, cells were transfected with plasmid DNA constructs by polyethylenimine (PEI, Polysciences, Inc., Warrington, PA, USA) according to the manufacturer’s instructions. Transcription activity assays of PPARα and PPARγ in HEK293 cells were performed by co-transfection of HA-PPARα, HA-PPARγ, and peroxisome proliferator-response element (PPRE) reporter plasmid (PPRE-pk-Luc) or control reporter plasmid (pk-Luc) with Renilla vector for 24 h. […] Luciferase activity was measured with the Dual-Luciferase Reporter Assay System (Promega, Madison, WI, USA) and quantified using GloMax (Promega, USA) according to the manufacturer’s protocol. […]
Luciferase activity was measured as described in the Methods section. […]

[1] = system: differentiated C2C12 myotubes; test: In vitro glucose consumption assay, C2C12 myotubes; type: cell-based, mouse; conditions: 10, 50 μM, 24 h
Procedure: Figure 3 MD001 promotes glucose consumption by induction of GLUT expression. HepG2 (A), differentiated 3T3-L1 adipocytes (B), and differentiated C2C12 myotubes (C) were treated with vehicle, MD001 (10, 50 μM), or rosiglitazone (rosi, 10 μM) for 24 h; glucose consumption was examined as described in the Methods section. Cells were harvested for total RNA isolation. Relative expression levels of GLUT2 (D) and GLUT4 (E,F) were quantitated using qRT-PCR. *, **, and ^† vs. vehicle. Data represent the mean ± SD of three independent experiments. *P < 0.05, **P < 0.01, and ^†P < 0.01.
The glucose consumption assay was performed as previously described. Briefly, cells were treated with MD001 or rosiglitazone […]. The conditioned medium from cultured cells was harvested and assayed for glucose content using a Glucose Colorimetric Assay Kit II (BioVision Inc., Milpitas, CA, USA).

wild type C57BL/6J mice = test: Toxicity study in wild type C57BL/6J mice; type: in vivo, mouse; conditions: wild type C57/BL6 mice, 50 or 100 mg/kg MD001 for eight weeks
Excerpt: Supplementary Table S4. Laboratory findings in control and MD001-treated mice
Results are expressed as the mean ( ± SD).
ALT, alanine transaminase; AST, aspartate transaminase; BUN, blood urea nitrogen; WBC, white blood cells.
Supplementary Table S5. Crystal data and structure refinement for 4a
Identification code exp_524
Empirical formula C27H22O5
Crystal system monoclinic

For `Cc1c(O)cc(O)c2c(-c3ccccc3)c(C(=O)/C=C/c3ccccc3)c(=O)oc12` [MD001], the “transcription via PPARα activation (luciferase activity)” value (human HA-PPARα; 10 μM, 24 h, vs. vehicle) was “significantly increased”, the “transcriptional activity of PPARα” value (human HA-PPARα; 24 h (Supplementary Fig. S2)) was “promoted simultaneous transcriptional activity” and the glucose consumption [1] was “significantly increased glucose consumption in a dose-dependent manner”. For the same compound, the “liver and kidney toxicities” value (wild type C57BL/6J mice) was “not observed”, the “white blood cell counts and haemoglobin (toxicology study)” value (wild type C57BL/6J mice) was “no differences” and the body weight change (wild type C57BL/6J mice; data not shown) was “no significant differences”.
